Activity calls are given as the source filed them. No cut-off for these calls is given here.
Tests used:
[1] = target: Protein cereblon/Bromodomain-containing protein 4 (Homo sapiens) (UniProt O60885+Q96SW2); experiment: PROTAC activity at CRBN/HiBiT-tagged BRD4 in human HAP1 cells assessed as induction of BRD4 degradation measured over 24 hrs by luminescence based analysis; assay type: cell-based
[2] = target: T1, Protein cereblon/CREB-binding protein (Homo sapiens) (UniProt Q92793+Q96SW2); experiment: PROTAC activity at CRBN/HiBiT-tagged CBP in human HAP1 cells assessed as total cumulative degradation by measuring AUC at 1 nM measured over 24 hrs by luminescence based analysis; assay type: cell-based
T1 sequence (Q92793 2-2442 limits assumed): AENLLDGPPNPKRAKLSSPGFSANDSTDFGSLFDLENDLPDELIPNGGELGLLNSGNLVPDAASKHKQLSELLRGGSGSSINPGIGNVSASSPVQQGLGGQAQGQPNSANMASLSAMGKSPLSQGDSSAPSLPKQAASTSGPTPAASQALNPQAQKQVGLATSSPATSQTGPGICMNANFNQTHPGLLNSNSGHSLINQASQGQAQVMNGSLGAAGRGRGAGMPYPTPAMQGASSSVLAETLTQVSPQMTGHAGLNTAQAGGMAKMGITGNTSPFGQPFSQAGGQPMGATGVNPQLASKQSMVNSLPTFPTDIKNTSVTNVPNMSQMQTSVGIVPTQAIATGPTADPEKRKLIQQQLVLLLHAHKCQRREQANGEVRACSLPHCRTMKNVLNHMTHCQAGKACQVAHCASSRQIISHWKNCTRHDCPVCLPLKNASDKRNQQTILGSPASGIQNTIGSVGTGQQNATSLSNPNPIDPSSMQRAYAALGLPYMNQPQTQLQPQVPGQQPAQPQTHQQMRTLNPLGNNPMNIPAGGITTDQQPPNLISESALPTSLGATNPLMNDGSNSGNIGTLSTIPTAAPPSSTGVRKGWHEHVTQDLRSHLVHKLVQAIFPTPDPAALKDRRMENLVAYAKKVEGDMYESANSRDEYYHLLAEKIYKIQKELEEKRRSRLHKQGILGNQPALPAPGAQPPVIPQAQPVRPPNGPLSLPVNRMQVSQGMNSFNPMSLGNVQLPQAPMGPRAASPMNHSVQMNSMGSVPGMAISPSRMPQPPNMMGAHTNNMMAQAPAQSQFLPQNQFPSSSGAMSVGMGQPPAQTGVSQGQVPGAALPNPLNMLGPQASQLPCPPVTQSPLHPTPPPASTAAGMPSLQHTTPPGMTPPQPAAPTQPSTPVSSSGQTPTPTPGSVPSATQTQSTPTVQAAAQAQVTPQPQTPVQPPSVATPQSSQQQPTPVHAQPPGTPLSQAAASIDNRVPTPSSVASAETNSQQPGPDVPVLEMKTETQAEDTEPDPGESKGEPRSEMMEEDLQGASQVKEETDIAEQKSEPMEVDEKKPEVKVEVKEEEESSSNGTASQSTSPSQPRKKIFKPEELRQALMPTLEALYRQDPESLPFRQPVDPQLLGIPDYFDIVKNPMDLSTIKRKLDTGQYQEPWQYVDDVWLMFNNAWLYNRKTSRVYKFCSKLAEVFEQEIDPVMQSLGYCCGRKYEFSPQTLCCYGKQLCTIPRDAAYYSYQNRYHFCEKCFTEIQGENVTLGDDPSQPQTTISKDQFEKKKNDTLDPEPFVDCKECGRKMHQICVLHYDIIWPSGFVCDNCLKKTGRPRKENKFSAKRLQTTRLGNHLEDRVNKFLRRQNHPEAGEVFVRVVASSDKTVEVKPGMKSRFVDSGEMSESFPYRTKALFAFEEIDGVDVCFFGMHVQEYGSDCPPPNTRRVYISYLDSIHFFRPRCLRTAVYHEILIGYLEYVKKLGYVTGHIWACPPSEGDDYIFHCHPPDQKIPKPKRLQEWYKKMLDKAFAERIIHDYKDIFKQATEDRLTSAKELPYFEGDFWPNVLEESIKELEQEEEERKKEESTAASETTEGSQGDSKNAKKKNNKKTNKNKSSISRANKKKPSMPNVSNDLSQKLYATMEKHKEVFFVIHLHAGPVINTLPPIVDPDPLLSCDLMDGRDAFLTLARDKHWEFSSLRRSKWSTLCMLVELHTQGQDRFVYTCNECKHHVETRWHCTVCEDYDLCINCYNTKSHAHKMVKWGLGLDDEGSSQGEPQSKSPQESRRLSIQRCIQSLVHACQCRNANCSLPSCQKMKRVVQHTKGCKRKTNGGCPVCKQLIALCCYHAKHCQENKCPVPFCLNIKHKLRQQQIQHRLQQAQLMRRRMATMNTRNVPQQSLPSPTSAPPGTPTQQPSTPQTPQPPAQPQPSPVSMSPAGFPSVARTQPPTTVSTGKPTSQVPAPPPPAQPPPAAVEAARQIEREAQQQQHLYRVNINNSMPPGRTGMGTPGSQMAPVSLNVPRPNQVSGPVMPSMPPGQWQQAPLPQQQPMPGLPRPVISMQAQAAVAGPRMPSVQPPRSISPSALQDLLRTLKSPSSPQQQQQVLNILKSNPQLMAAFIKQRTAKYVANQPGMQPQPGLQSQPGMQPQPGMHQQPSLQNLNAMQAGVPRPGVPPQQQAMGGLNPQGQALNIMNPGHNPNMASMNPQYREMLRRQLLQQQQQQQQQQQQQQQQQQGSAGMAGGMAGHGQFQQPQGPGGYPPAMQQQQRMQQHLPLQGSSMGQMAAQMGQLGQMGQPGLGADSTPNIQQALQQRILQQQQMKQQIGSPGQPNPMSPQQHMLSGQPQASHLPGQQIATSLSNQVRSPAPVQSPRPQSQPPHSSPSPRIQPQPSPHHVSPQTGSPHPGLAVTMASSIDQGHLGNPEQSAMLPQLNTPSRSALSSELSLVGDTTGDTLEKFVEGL
T1 sequence (Q96SW2 whole entry partner): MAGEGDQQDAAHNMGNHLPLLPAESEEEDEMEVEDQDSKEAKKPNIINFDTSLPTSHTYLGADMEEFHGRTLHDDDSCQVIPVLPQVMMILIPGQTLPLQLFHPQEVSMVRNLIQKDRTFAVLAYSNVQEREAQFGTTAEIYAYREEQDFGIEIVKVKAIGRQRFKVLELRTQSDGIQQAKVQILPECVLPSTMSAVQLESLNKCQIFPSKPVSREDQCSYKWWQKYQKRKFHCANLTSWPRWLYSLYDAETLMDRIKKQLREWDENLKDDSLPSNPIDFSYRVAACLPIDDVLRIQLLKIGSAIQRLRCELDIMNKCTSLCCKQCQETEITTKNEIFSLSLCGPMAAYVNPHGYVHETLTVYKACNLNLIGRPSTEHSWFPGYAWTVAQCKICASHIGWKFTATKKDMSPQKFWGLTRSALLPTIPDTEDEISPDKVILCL

[3] = target: T2, Protein cereblon/Histone acetyltransferase p300 (Homo sapiens) (UniProt Q09472+Q96SW2); experiment: PROTAC activity at CRBN/HiBiT-tagged p300 in human HAP1 cells assessed as induction of p300 degradation by measuring degradation rate at 100 nM measured over 24 hrs by luminescence based analysis; assay type: cell-based
[4] = target: T1, Protein cereblon/CREB-binding protein (Homo sapiens); experiment: PROTAC activity at CRBN/HiBiT-tagged CBP in human HAP1 cells assessed as induction of CBP degradation by measuring degradation rate at 1000 nM measured over 24 hrs by luminescence based analysis; assay type: cell-based
[5] = target: T2, Protein cereblon/Histone acetyltransferase p300 (Homo sapiens); experiment: PROTAC activity at CRBN/HiBiT-tagged p300 in human HAP1 cells assessed as induction of p300 degradation by measuring degradation rate at 10 nM measured over 24 hrs by luminescence based analysis; assay type: cell-based
[6] = target: T1, Protein cereblon/CREB-binding protein (Homo sapiens); experiment: PROTAC activity at CRBN/HiBiT-tagged CBP in human HAP1 cells assessed as induction of CBP degradation by measuring maximal efficacy at 1 nM measured over 24 hrs by luminescence based analysis relative to control; assay type: cell-based
[7] = target: T1, Protein cereblon/CREB-binding protein (Homo sapiens); experiment: Binding affinity to recombinant CRBN/CBP bromodomain (unknown origin) assessed as ternary complex formation at 10 to 100 nM by Alphascreen-based proximity assay; assay type: protein assay; conditions: dose 10-100 nM
[8] = target: T1, Protein cereblon/CREB-binding protein (Homo sapiens); experiment: PROTAC activity at CRBN/HiBiT-tagged CBP in human HAP1 cells assessed as induction of CBP degradation by measuring maximal efficacy at 0.1 nM measured over 24 hrs by luminescence based analysis relative to control; assay type: cell-based
[9] = target: T2, Protein cereblon/Histone acetyltransferase p300 (Homo sapiens); experiment: PROTAC activity at CRBN/HiBiT-tagged p300 in human HAP1 cells assessed as induction of p300 degradation by measuring maximal efficacy at 10 nM measured over 24 hrs by luminescence based analysis relative to control; assay type: cell-based
[10] = target: T2, Protein cereblon/Histone acetyltransferase p300 (Homo sapiens); experiment: PROTAC activity at CRBN/HiBiT-tagged p300 in human HAP1 cells assessed as total cumulative degradation by measuring AUC at 100 nM measured over 24 hrs by luminescence based analysis; assay type: cell-based
[11] = target: T2, Protein cereblon/Histone acetyltransferase p300 (Homo sapiens); experiment: PROTAC activity at CRBN/HiBiT-tagged p300 in human HAP1 cells assessed as total cumulative degradation by measuring AUC at 1 nM measured over 24 hrs by luminescence based analysis; assay type: cell-based
[12] = target: T1, Protein cereblon/CREB-binding protein (Homo sapiens); experiment: PROTAC activity at CRBN/HiBiT-tagged CBP in human HAP1 cells assessed as induction of CBP degradation by measuring maximal efficacy at 1000 nM measured over 24 hrs by luminescence based analysis relative to control; assay type: cell-based
[13] = target: T1, Protein cereblon/CREB-binding protein (Homo sapiens); experiment: PROTAC activity at CRBN/HiBiT-tagged CBP in human HAP1 cells assessed as total cumulative degradation by measuring AUC at 100 nM measured over 24 hrs by luminescence based analysis; assay type: cell-based
[14] = target: T1, Protein cereblon/CREB-binding protein (Homo sapiens); experiment: PROTAC activity at CRBN/HiBiT-tagged CBP in human HAP1 cells assessed as total cumulative degradation by measuring AUC at 0.1 nM measured over 24 hrs by luminescence based analysis; assay type: cell-based
[15] = target: T1, Protein cereblon/CREB-binding protein (Homo sapiens); experiment: PROTAC activity at CRBN/HiBiT-tagged CBP in human HAP1 cells assessed as induction of CBP degradation by measuring maximal efficacy at 100 nM measured over 24 hrs by luminescence based analysis relative to control; assay type: cell-based
[16] = target: T2, Protein cereblon/Histone acetyltransferase p300 (Homo sapiens); experiment: PROTAC activity at CRBN/HiBiT-tagged p300 in human HAP1 cells assessed as induction of p300 degradation by measuring degradation rate at 1 nM measured over 24 hrs by luminescence based analysis; assay type: cell-based
[17] = target: T2, Protein cereblon/Histone acetyltransferase p300 (Homo sapiens); experiment: PROTAC activity at CRBN/HiBiT-tagged p300 in human HAP1 cells assessed as total cumulative degradation by measuring AUC at 0.01 nM measured over 24 hrs by luminescence based analysis; assay type: cell-based
[18] = target: T2, Protein cereblon/Histone acetyltransferase p300 (Homo sapiens); experiment: PROTAC activity at CRBN/HiBiT-tagged p300 in human HAP1 cells assessed as induction of p300 degradation by measuring maximal efficacy at 1000 nM measured over 24 hrs by luminescence based analysis relative to control; assay type: cell-based
[19] = target: T1, Protein cereblon/CREB-binding protein (Homo sapiens); experiment: PROTAC activity at CRBN/HiBiT-tagged CBP in human HAP1 cells assessed as induction of CBP degradation by measuring degradation rate at 100 nM measured over 24 hrs by luminescence based analysis; assay type: cell-based
[20] = target: T1, Protein cereblon/CREB-binding protein (Homo sapiens); experiment: PROTAC activity at CRBN/HiBiT-tagged CBP in human HAP1 cells assessed as total cumulative degradation by measuring AUC at 1000 nM measured over 24 hrs by luminescence based analysis; assay type: cell-based
[21] = target: T1, Protein cereblon/CREB-binding protein (Homo sapiens); experiment: PROTAC activity at CRBN/HiBiT-tagged CBP in human HAP1 cells assessed as induction of CBP degradation by measuring degradation rate at 10 nM measured over 24 hrs by luminescence based analysis; assay type: cell-based
[22] = target: T1, Protein cereblon/CREB-binding protein (Homo sapiens); experiment: PROTAC activity at CRBN/HiBiT-tagged CBP in human HAP1 cells assessed as induction of CBP degradation by measuring degradation rate at 1 nM measured over 24 hrs by luminescence based analysis; assay type: cell-based
[23] = target: T2, Protein cereblon/Histone acetyltransferase p300 (Homo sapiens); experiment: PROTAC activity at CRBN/HiBiT-tagged p300 in human HAP1 cells assessed as total cumulative degradation by measuring AUC at 0.1 nM measured over 24 hrs by luminescence based analysis; assay type: cell-based
[24] = target: T1, Protein cereblon/CREB-binding protein (Homo sapiens); experiment: PROTAC activity at CRBN/HiBiT-tagged CBP in human HAP1 cells assessed as induction of CBP degradation by measuring degradation rate at 0.1 nM measured over 24 hrs by luminescence based analysis; assay type: cell-based
[25] = target: T2, Protein cereblon/Histone acetyltransferase p300 (Homo sapiens); experiment: PROTAC activity at CRBN/HiBiT-tagged p300 in human HAP1 cells assessed as total cumulative degradation by measuring AUC at 10 nM measured over 24 hrs by luminescence based analysis; assay type: cell-based
[26] = target: T1, Protein cereblon/CREB-binding protein (Homo sapiens); experiment: PROTAC activity at CRBN/HiBiT-tagged CBP in human HAP1 cells assessed as total cumulative degradation by measuring AUC at 10 nM measured over 24 hrs by luminescence based analysis; assay type: cell-based
[27] = target: T2, Protein cereblon/Histone acetyltransferase p300 (Homo sapiens); experiment: PROTAC activity at CRBN/HiBiT-tagged p300 in human HAP1 cells assessed as induction of p300 degradation by measuring maximal efficacy at 1 nM measured over 24 hrs by luminescence based analysis relative to control; assay type: cell-based
[28] = target: T1, Protein cereblon/CREB-binding protein (Homo sapiens); experiment: PROTAC activity at CRBN/HiBiT-tagged CBP in human HAP1 cells assessed as total cumulative degradation by measuring AUC at 0.01 nM measured over 24 hrs by luminescence based analysis; assay type: cell-based
[29] = target: T2, Protein cereblon/Histone acetyltransferase p300 (Homo sapiens); experiment: Binding affinity to recombinant CRBN/p300 bromodomain (unknown origin) assessed as ternary complex formation at 10 to 100 nM by Alphascreen-based proximity assay; assay type: protein assay; conditions: dose 10-100 nM
[30] = target: T2, Protein cereblon/Histone acetyltransferase p300 (Homo sapiens); experiment: PROTAC activity at CRBN/HiBiT-tagged p300 in human HAP1 cells assessed as induction of p300 degradation by measuring degradation rate at 1000 nM measured over 24 hrs by luminescence based analysis; assay type: cell-based
[31] = target: T2, Protein cereblon/Histone acetyltransferase p300 (Homo sapiens); experiment: PROTAC activity at CRBN/HiBiT-tagged p300 in human HAP1 cells assessed as induction of p300 degradation by measuring maximal efficacy at 100 nM measured over 24 hrs by luminescence based analysis relative to control; assay type: cell-based
[32] = target: T1, Protein cereblon/CREB-binding protein (Homo sapiens); experiment: PROTAC activity at CRBN/HiBiT-tagged CBP in human HAP1 cells assessed as induction of CBP degradation by measuring maximal efficacy at 10 nM measured over 24 hrs by luminescence based analysis relative to control; assay type: cell-based
[33] = target: T2, Protein cereblon/Histone acetyltransferase p300 (Homo sapiens); experiment: PROTAC activity at CRBN/HiBiT-tagged p300 in human HAP1 cells assessed as total cumulative degradation by measuring AUC at 1000 nM measured over 24 hrs by luminescence based analysis; assay type: cell-based
[34] = target: T2, Protein cereblon/Histone acetyltransferase p300 (Homo sapiens); experiment: PROTAC activity at CRBN/HiBiT-tagged p300 in human HAP1 cells assessed as induction of p300 degradation by measuring maximal efficacy at 0.1 nM measured over 24 hrs by luminescence based analysis relative to control; assay type: cell-based
[35] = target: T2, Protein cereblon/Histone acetyltransferase p300 (Homo sapiens); experiment: PROTAC activity at CRBN/HiBiT-tagged p300 in human HAP1 cells assessed as induction of p300 degradation by measuring degradation rate at 0.1 nM measured over 24 hrs by luminescence based analysis; assay type: cell-based
[36] = target: T1, Protein cereblon/CREB-binding protein (Homo sapiens); experiment: Binding affinity to recombinant CRBN/CBP bromodomain (unknown origin) assessed as ternary complex formation at 1 to 1000 nM by Alphascreen-based proximity assay; assay type: protein assay; conditions: dose 1-1000 nM
[37] = target: T2, Protein cereblon/Histone acetyltransferase p300 (Homo sapiens); experiment: Binding affinity to recombinant CRBN/p300 bromodomain (unknown origin) assessed as ternary complex formation at 1 to 1000 nM by Alphascreen-based proximity assay; assay type: protein assay; conditions: dose 1-1000 nM

Sequence of Protein cereblon/Bromodomain-containing protein 4 (Homo sapiens) (Q96SW2 whole entry, looked up, other chains not shown): as the sequence (Q96SW2 whole entry partner) above

SMILES | Activity [1] | AUC [2] | Activity [3] | Activity [4] | Activity [5] | Emax [6] | Emax [8] | Emax [9] | AUC [10] | AUC [11] | Emax [12] | AUC [13] | AUC [14] | Emax [15] | Activity [16] | AUC [17] | Emax [18] | Activity [19] | AUC [20] | Activity [21] | also measured
CNC(=O)N1CCc2c(c(N3CCCc4cc(-c5cnn(C)c5)c(C(F)F)cc43)nn2C2CCN(C(=O)CCOCCNc3ccc4c(c3)C(=O)N(C3CCC(=O)NC3=O)C4=O)CC2)C1 (stereo not drawn) | inactive | 15.6 | 0.29 h⁻¹ | 0.36 h⁻¹ | 0.35 h⁻¹ | 44% | 11% | 71% | 9.4 | 16.1 | 64% | 12.1 | 23.7 | 65% | 0.2 h⁻¹ | 27.3 | 58% | 0.19 h⁻¹ | 19.5 | 0.31 h⁻¹ | Activity [7]: Active; Activity [22]: 0.26 h⁻¹; AUC [23]: 24.7; Activity [24]: 1.2 10^-4/hr; AUC [25]: 9.2; AUC [26]: 10.3; Emax [27]: 44%; AUC [28]: 25.6; Activity [29]: Active; Activity [30]: 0.09 h⁻¹; Emax [31]: 73%; Emax [32]: 68%; AUC [33]: 16.5
CNC(=O)N1CCc2c(c(N3CCCc4cc(-c5cnn(C)c5)c(C(F)(F)F)cc43)nn2C2CCN(C(=O)CCOCCOCCOCCOCCNc3ccc4c(c3)C(=O)N(C3CCC(=O)NC3=O)C4=O)CC2)C1 (stereo not drawn) | inactive | 10.7 | 1 h⁻¹ | 0.32 h⁻¹ | 1.3 h⁻¹ | 61% | 20% | 82% | 3.9 | 12.3 | 80% | 4 | 20.8 | 88% | 0.41 h⁻¹ | 26.5 | 84% | 0.83 h⁻¹ | 7.4 | 1.3 h⁻¹ | Activity [7]: Active; Emax [34]: 17%; Activity [35]: 1 10^-4/hr; Activity [22]: 0.63 h⁻¹; AUC [23]: 23.2; Activity [24]: 0.21 h⁻¹; AUC [25]: 5.2; AUC [26]: 4.4; Emax [27]: 56%; AUC [28]: 24.1; Activity [29]: Active; Activity [30]: 0.42 h⁻¹; Emax [31]: 88%; Emax [32]: 85%; AUC [33]: 6
CNC(=O)N1CCc2c(c(N3CCCc4cc(-c5cnn(C)c5)c(C(F)F)cc43)nn2C2CCN(C(=O)CCOCCOCCOCCOCCNc3ccc4c(c3)C(=O)N(C3CCC(=O)NC3=O)C4=O)CC2)C1 (stereo not drawn) | inactive | 10.4 | 1 h⁻¹ | 0.4 h⁻¹ | 1 h⁻¹ | 63% | 25% | 83% | 3.7 | 12.2 | 83% | 3.9 | 20.7 | 89% | 0.37 h⁻¹ | 26.1 | 86% | 0.81 h⁻¹ | 6.4 | 1.1 h⁻¹ | Emax [34]: 27%; Activity [36]: Active; Activity [37]: Active; Activity [35]: 0.02 h⁻¹; Activity [22]: 0.54 h⁻¹; AUC [23]: 21.7; Activity [24]: 0.12 h⁻¹; AUC [25]: 5.1; AUC [26]: 4.4; Emax [27]: 57%; AUC [28]: 24.7; Activity [30]: 0.57 h⁻¹; Emax [31]: 88%; Emax [32]: 86%; AUC [33]: 4.8

Source: ChEMBL document CHEMBL5579809, “Exploration of bromodomain ligand-linker conjugation sites for efficient CBP/p300 heterobifunctional degrader activity” (Bioorg Med Chem Lett, 2024)
